# Laboratory results as given in PMC5578999, “Novel quinolone chalcones targeting colchicine-binding pocket kill multidrug-resistant cancer cells by inhibiting tubulin activity and MRP1 function” (Scientific Reports, 2017).
# Columns and labels:
# Test in all cases: NCI-60 SRB screen
# Assay type in all cases: cell-based
# HT29 = tested on: HT29
# From the text: (§1) Supplementary Figure l egend
# (§2) 10μ M of CTR-20 was used to examine the drug’s efficac y against the NC I-60 cancer cell li nes including: six leukemia cell lines, nine non- small cell lung cancer cell lines, seven color ect al cancer cell lines, six CNS cancer cell lines, nine melanoma cell lines, seven ovari an can cer cell lines, seven ren al can cer cell lines, two prostate cancer cell lines and six breast cancer cell lines. The scr eenin g was car r ied out b y the US National Cancer Institute (NC I) us i n g a sulforhodamine B (SRB) colorimetric assay. […]
# (§3) out by the NC I using five different doses of CTR -20.
# M14 = tested on: M14
# From the text: as §1, §2, §3
# MDA-MB-231/ATCC = tested on: MDA-MB-231/ATCC
# From the text: as §1, §2, §3
# MDA-MB-435 = tested on: MDA-MB-435
# From the text: as §1, §2, §3
# NCI-H522 = tested on: NCI-H522
# From the text: as §1, §2, §3
# OVCAR-8 = tested on: OVCAR-8
# From the text: as §1, §2, §3
# PC-3 = tested on: PC-3
# From the text: as §1, §2, §3
# RPMI-8226 = tested on: RPMI-8226
# From the text: as §1, §2, §3
# RXF 393 = tested on: RXF 393
# From the text: as §1, §2, §3
# SK-MEL-28 = tested on: SK-MEL-28
# From the text: as §1, §2, §3
# SW-620 = tested on: SW-620
# From the text: as §1, §2, §3
# UACC-62 = tested on: UACC-62
# From the text: as §1, §2, §3
# [1] = Homo sapiens, read-out: LC50 (the source's name)
structure (smiles),measurement,setting,value
"COc1ccc2[nH]c(=O)c(/C=C/C(=O)c3ccccc3OC)cc2c1 [CTR-20, (E)-6-Methoxy-3-(3-(2-methoxyphenyl)-3-oxoprop-1-enyl) quinolin-2(1H)-one]",Log10GI50,HT29,-6.53 Molar
same,Log10LC50,HT29,-4.63 Molar
same,Log10TGI,HT29,-5.86 Molar
same,TGI,HT29,1.37E-6 Molar
same,Growth Percent,HT29; 1.00E-5 Molar,7.17%
same,GI50,"HT29; Homo sapiens, HT-29",0.293 µM
same,LC50,"HT29; Homo sapiens, HT-29",23.7 µM
same,Percent Growth,HT29; Log10 Concentration -4.0,-73%
same,Percent Growth,HT29; Log10 Concentration -5.0,-36%
same,Percent Growth,HT29; Log10 Concentration -6.0,6%
same,Percent Growth,HT29; Log10 Concentration -7.0,89%
same,Percent Growth,HT29; Log10 Concentration -8.0,98%
same,Log10GI50,M14,-6.56 Molar
same,Log10LC50,M14,-4.62 Molar
same,Log10TGI,M14,-5.85 Molar
same,TGI,M14,1.41E-6 Molar
same,Growth Percent,M14; 1.00E-5 Molar,13.82%
same,GI50,M14; Homo sapiens,0.278 µM
same,CC50,M14; [1],24 µM
same,Percent Growth,M14; Log10 Concentration -4.0,-93%
same,Percent Growth,M14; Log10 Concentration -5.0,-23%
same,Percent Growth,M14; Log10 Concentration -6.0,4%
same,Percent Growth,M14; Log10 Concentration -7.0,87%
same,Percent Growth,M14; Log10 Concentration -8.0,92%
same,Log10GI50,MDA-MB-231/ATCC,-5.84 Molar
same,Log10LC50,MDA-MB-231/ATCC,-4.40 Molar
same,Log10TGI,MDA-MB-231/ATCC,-4.96 Molar
same,TGI,MDA-MB-231/ATCC,1.10E-5 Molar
same,Growth Percent,MDA-MB-231/ATCC; 1.00E-5 Molar,0.32%
same,GI50,MDA-MB-231/ATCC; Homo sapiens,1.44 µM
same,CC50,MDA-MB-231/ATCC; [1],39.6 µM
same,Percent Growth,MDA-MB-231/ATCC; Log10 Concentration -4.0,-86%
same,Percent Growth,MDA-MB-231/ATCC; Log10 Concentration -5.0,4%
same,Percent Growth,MDA-MB-231/ATCC; Log10 Concentration -6.0,59%
same,Percent Growth,MDA-MB-231/ATCC; Log10 Concentration -7.0,102%
same,Percent Growth,MDA-MB-231/ATCC; Log10 Concentration -8.0,102%
same,Log10GI50,MDA-MB-435,-7.25 Molar
same,Log10LC50,MDA-MB-435,-4.66 Molar
same,Log10TGI,MDA-MB-435,-6.56 Molar
same,TGI,MDA-MB-435,2.75E-7 Molar
same,Growth Percent,MDA-MB-435; 1.00E-5 Molar,-10.05%
same,GI50,MDA-MB-435; Homo sapiens,0.0564 µM
same,CC50,MDA-MB-435; [1],21.9 µM
same,Percent Growth,MDA-MB-435; Log10 Concentration -4.0,-97%
same,Percent Growth,MDA-MB-435; Log10 Concentration -5.0,-26%
same,Percent Growth,MDA-MB-435; Log10 Concentration -6.0,-46%
same,Percent Growth,MDA-MB-435; Log10 Concentration -7.0,36%
same,Percent Growth,MDA-MB-435; Log10 Concentration -8.0,92%
same,Log10GI50,NCI-H522,-6.45 Molar
same,Log10LC50,NCI-H522,-4.89 Molar
same,Log10TGI,NCI-H522,-5.69 Molar
same,TGI,NCI-H522,2.06E-6 Molar
same,Growth Percent,NCI-H522; 1.00E-5 Molar,3.93%
same,GI50,NCI-H522; Homo sapiens,0.352 µM
same,LC50 (concentration causing 50% net cell kill),NCI-H522; Homo sapiens,12.9 µM
same,Percent Growth,NCI-H522; Log10 Concentration -4.0,-88%
same,Percent Growth,NCI-H522; Log10 Concentration -5.0,-45%
same,Percent Growth,NCI-H522; Log10 Concentration -6.0,21%
same,Percent Growth,NCI-H522; Log10 Concentration -7.0,85%
same,Percent Growth,NCI-H522; Log10 Concentration -8.0,87%
same,Log10GI50,OVCAR-8,-6.06 Molar
same,Log10LC50,OVCAR-8,-4.46 Molar
same,Log10TGI,OVCAR-8,-4.94 Molar
same,TGI,OVCAR-8,1.16E-5 Molar
same,Growth Percent,OVCAR-8; 1.00E-5 Molar,1.18%
same,GI50,OVCAR-8; Homo sapiens,0.874 µM
same,CC50,OVCAR-8; [1],34.4 µM
same,Percent Growth,OVCAR-8; Log10 Concentration -4.0,-99%
same,Percent Growth,OVCAR-8; Log10 Concentration -5.0,7%
same,Percent Growth,OVCAR-8; Log10 Concentration -6.0,46%
same,Percent Growth,OVCAR-8; Log10 Concentration -7.0,109%
same,Percent Growth,OVCAR-8; Log10 Concentration -8.0,113%
same,Log10GI50,PC-3,-6.07 Molar
same,Log10LC50,PC-3,-4.59 Molar
same,Log10TGI,PC-3,-5.43 Molar
same,TGI,PC-3,3.75E-6 Molar
same,Growth Percent,PC-3; 1.00E-5 Molar,22.06%
same,GI50,PC-3; Homo sapiens,0.842 µM
same,CC50,PC-3; [1],25.9 µM
same,Percent Growth,PC-3; Log10 Concentration -4.0,-73%
same,Percent Growth,PC-3; Log10 Concentration -5.0,-34%
same,Percent Growth,PC-3; Log10 Concentration -6.0,46%
same,Percent Growth,PC-3; Log10 Concentration -7.0,102%
same,Percent Growth,PC-3; Log10 Concentration -8.0,104%
same,Log10GI50,RPMI-8226,-6.41 Molar
same,Log10LC50,RPMI-8226,> -4.00 Molar
same,Log10TGI,RPMI-8226,-5.66 Molar
same,TGI,RPMI-8226,2.21E-6 Molar
same,Growth Percent,RPMI-8226; 1.00E-5 Molar,5.61%
same,GI50,RPMI-8226; Homo sapiens,0.385 µM
same,CC50,RPMI-8226; [1],> 100 µM
same,Percent Growth,RPMI-8226; Log10 Concentration -4.0,-37%
same,Percent Growth,RPMI-8226; Log10 Concentration -5.0,-20%
same,Percent Growth,RPMI-8226; Log10 Concentration -6.0,10%
same,Percent Growth,RPMI-8226; Log10 Concentration -7.0,106%
same,Percent Growth,RPMI-8226; Log10 Concentration -8.0,113%
same,Log10GI50,RXF 393,-5.99 Molar
same,Log10LC50,RXF 393,-5.19 Molar
same,Log10TGI,RXF 393,-5.59 Molar
same,TGI,RXF 393,2.57E-6 Molar
same,Growth Percent,RXF 393; 1.00E-5 Molar,-7.90%
same,GI50,RXF 393; Homo sapiens,1.02 µM
same,CC50,RXF 393; [1],6.48 µM
same,Percent Growth,RXF 393; Log10 Concentration -4.0,-98%
same,Percent Growth,RXF 393; Log10 Concentration -5.0,-74%
same,Percent Growth,RXF 393; Log10 Concentration -6.0,51%
same,Percent Growth,RXF 393; Log10 Concentration -7.0,99%
same,Percent Growth,RXF 393; Log10 Concentration -8.0,99%
same,Log10GI50,SK-MEL-28,-5.82 Molar
same,Log10LC50,SK-MEL-28,-4.54 Molar
same,Log10TGI,SK-MEL-28,-5.14 Molar
same,TGI,SK-MEL-28,7.32E-6 Molar
same,Growth Percent,SK-MEL-28; 1.00E-5 Molar,50.45%
same,GI50,SK-MEL-28; Homo sapiens,1.52 µM
same,CC50,SK-MEL-28; [1],28.5 µM
same,Percent Growth,SK-MEL-28; Log10 Concentration -4.0,-98%
same,Percent Growth,SK-MEL-28; Log10 Concentration -5.0,-10%
same,Percent Growth,SK-MEL-28; Log10 Concentration -6.0,63%
same,Percent Growth,SK-MEL-28; Log10 Concentration -7.0,95%
same,Percent Growth,SK-MEL-28; Log10 Concentration -8.0,96%
same,Log10GI50,SW-620,-6.47 Molar
same,Log10LC50,SW-620,-4.31 Molar
same,Log10TGI,SW-620,-5.65 Molar
same,TGI,SW-620,2.24E-6 Molar
same,Growth Percent,SW-620; 1.00E-5 Molar,8.40%
same,GI50,SW-620; Homo sapiens,0.335 µM
same,LC50 (50% lethal concentration),SW-620; Homo sapiens,49.4 µM
same,Percent Growth,SW-620; Log10 Concentration -4.0,-58%
same,Percent Growth,SW-620; Log10 Concentration -5.0,-31%
same,Percent Growth,SW-620; Log10 Concentration -6.0,17%
same,Percent Growth,SW-620; Log10 Concentration -7.0,87%
same,Percent Growth,SW-620; Log10 Concentration -8.0,98%
same,Log10GI50,UACC-62,-6.32 Molar
same,Log10LC50,UACC-62,-4.75 Molar
same,Log10TGI,UACC-62,-5.53 Molar
same,TGI,UACC-62,2.97E-6 Molar
same,Growth Percent,UACC-62; 1.00E-5 Molar,25.73%
same,GI50,UACC-62; Homo sapiens,0.478 µM
same,CC50,UACC-62; [1],17.9 µM
same,Percent Growth,UACC-62; Log10 Concentration -4.0,-95%
same,Percent Growth,UACC-62; Log10 Concentration -5.0,-35%
same,Percent Growth,UACC-62; Log10 Concentration -6.0,31%
same,Percent Growth,UACC-62; Log10 Concentration -7.0,90%
same,Percent Growth,UACC-62; Log10 Concentration -8.0,94%
